Laboratory results reported in patent publication US10759799B2, “Indazole containing macrocycles and therapeutic uses thereof” (Samumed, LLC, priority 2018, dated 2020).

What was measured:
[1] = tested on: primary human fibroblasts derived from IPF patients (LL29 cells); experiment: Inhibition of TGF-β1 induced fibrosis (αSMA staining) in LL29 fibroblasts; assay type: cell-based; conditions: Fibroblast; for EC50: 96 h, LL29 cells, TGF-β1 20 ng/mL, 4 days, % αSMA positive cells
Experimental: Representative compounds were screened using primary human fibroblasts (derived from IPF patients) treated with TGF-β1 to determine their ability to inhibit the fibrotic process.
LL29 cells were plated at 1,500 cells/well in 70 μL/well F12 medium supplemented with 1% Fetal Bovine Serum. […] Wells treated with TGF-β1 and containing DMSO were used as positive control, and cells with only DMSO were negative control. […] Following incubation for 4 days, SYTOX green nucleic acid stain (Life Technologies [Thermo Fisher Scientific]) was added to the wells at a final concentration of 1 μM and incubated at room temperature for 30 min.

[2] = tested on: primary human mesenchymal stem cells (hMSCs); experiment: Chondrogenesis induction in hMSCs (Rhodamine B staining intensity, EC50); assay type: cell-based; conditions: 6 days, Rhodamine B staining intensity of nodules
Description: (§1) Representative compounds were screened using primary human mesenchymal stem cells (hMSCs) to determine their ability to induce chondrogenesis (process by which cartilage is developed).
Primary human mesenchymal stem cells (hMSCs) were purchased from Lonza (Walkersville, Md.) and expanded in Mesenchymal Stem Cell Growth Media (Lonza). Cells between passage 2 and 4 were used for the experiments.
To image chondrogenic nodules, the cells were fixed using 4% formaldehyde (Electron Microscopy Sciences), and stained with 2 μg/mL Rhodamine B (Sigma-Aldrich) and 20 μM Nile Red (Sigma-Aldrich) [Johnson K., et. al, A Stem Cell-Based Approach to Cartilage Repair, Science, (2012), 336(6082). […] Rhodamine B staining intensity of nodules in each well was normalized to the average of 3 DMSO treated wells on the same plate using Excel (Microsoft Inc.). The normalized averages (fold change over DMSO) of 3 replicate wells for each compound concentration were calculated. EC50 values were calculated using non-linear regression curve fitting in Prism 8 (Graphpad Inc.). Due to solubility limitations of some of the compounds, curve fitting was incomplete, and the highest observed activity was extrapolated to the insoluble doses for accurate EC50 determinations.
EC50 values are reported. Further, using TGF-β3 as a positive control, the concentration of representative compounds required to induce equivalent levels of chondrogenesis is reported. In addition, the maximum activity of each compound and the respective dose that each compound reached maximum chondrogenesis activity is reported.

[3] = biological target: recombinant DYRK1A kinase (Homo sapiens (Human), UniProt Q13627); experiment: DYRK1A kinase assay (Ser/Thr 18 peptide Z-lyte, FRET); assay type: biochemical; conditions: 30 μM ATP, one hour at room temperature, read-out: EC50 (μM) (IC50 per method)
Description: Representative compounds were screened using the assay procedure for DYRK1A kinase activity as described below.
The DYRK1A kinase assay was run using the Ser/Thr 18 peptide Z-lyte assay kit according to manufacturer's instructions (Life Technologies—a Division of Thermo-Fisher). This is a non-radioactive assay using fluorescence resonance energy transfer (FRET) between coumarin and fluorescein to detect kinase activity which is represented as a ratio of coumarin emission/fluorescein emission.
Briefly, recombinant DYRK1A kinase, ATP and Ser/Thr peptide 18 were prepared in 1× Kinase buffer to final concentrations of 0.19 μg/mL, 30 μM, and 4 μM respectively. The mixture was allowed to incubate with the representative compounds for one hour at room temperature. All reactions were performed in duplicate. Unphosphorylated (“0% Control”) and phosphorylated (“100% control”) forms of Ser/Thr 18 served as control reactions. Additionally, an 11-point dose-response curve of Staurosporine (1 uM top) was run to serve as a positive compound control.
After incubation, Development Reagent A was diluted in Development Buffer then added to the reaction and allowed to further incubate for one hour at room temperature. The plate was read at Ex 400 Em 455 to detect the coumarin signal and Ex 400 Em 520 to measure the signal (EnVision Multilabel Plate Reader, PerkinElmer).
The Emission ratio (Em) was calculated as a ratio of the coumarin (C) emission signal (at 445 nm)/Fluorescein (F) emission signal (at 520 nm). The percent phosphorylation was then calculated using the following formula: [1−((Em ratio×F100%)−C100%)/((C0%−C100%)+(Em ratio×(F100%−F0%)))].

[4] = tested on: primary human mesenchymal stem cells (hMSCs); experiment: Chondrogenesis induction in hMSCs (nodule count, relative to TGF-β3); assay type: cell-based; conditions: 6 days; for Conc (nM) of 50% TGF-β3 activity / Max. Activity as % TGF-β3 activity: TGF-β3 10 ng/mL positive control; for Conc (nM) of Max. activity: chondrogenic nodules
Description: as §1
Human Mesenchymal Stem Cell Culture: Primary human mesenchymal stem cells (hMSCs) were purchased from Lonza (Walkersville, Md.) and expanded in Mesenchymal Stem Cell Growth Media (Lonza). Cells between passage 3 and 6 were used for the experiments.
Number of nodules in each well was normalized to the average of 3 DMSO treated wells on the same plate using Excel (Microsoft Inc.). The normalized averages (fold change over DMSO) of 3 replicate wells for each compound concentration were calculated. Due to solubility limitations of some of the compounds, curve fitting was incomplete leading to inaccurate EC50 determinations.
Using TGF-β3 as a positive control, the concentration of representative compounds required to induce equivalent levels of chondrogenesis is reported. In addition, the maximum activity of each compound and the respective dose that each compound reached maximum chondrogenesis activity is reported.

[5] = from NCc1cncc(-c2ccc3[nH]nc(C(=O)Nc4cncc(-c5cccc(CCC(=O)O)c5)c4)c3c2)c1; amide bond; 20-membered ring; HATU/DIEA/DMAP; DMF; 20.0 mM; 37.0 °C

SMILES | EC50 [1] [nM] | EC50 [2] [nM] | IC50 [3] [µM] | Conc (nM) of 50% TGF-β3 activity [4] [nM] | Max. Activity as % TGF-β3 activity [4] [%] | Conc (nM) of Max. activity [4] [nM] | inhibition at 10 µM ([1]; read-out: percent inhibition at 10 μM) [%] | ring closure, isolated yield [5] [%]
O=C1CCc2cccc(c2)-c2cccc3[nH]c(nc23)-c2n[nH]c3ccc(cc23)-c2cncc(c2)N1 [Compound 1] | 24 | 12 | 0.266 | 200 | 497 | 5000 |  | 
O=C1CCc2cccc(c2)-c2nccc3[nH]c(nc23)-c2n[nH]c3ccc(cc23)-c2cncc(c2)N1 [Compound 2, (Z)-2^1H,3^1H-5-Aza-2(4,2)-imidazo[4,5-c]pyridina-3 (3,5)-indazola-4(3,5)-pyridina-1(1,3)-benzenacyclooctaphan-6-one] | 224 | 58 | 0.006 |  |  |  |  | 
O=C1CCc2cccc(c2)-c2cncc3[nH]c(nc23)-c2n[nH]c3ccc(cc23)-c2cncc(c2)N1 [Compound 3, (Z)-2^3H,3^1H-5-Aza-2(7,2)-imidazo[4,5-c]pyridina-3 (3,5)-indazola-4(3,5)-pyridina-1(1,3)-benzenacyclooctaphan-6-one] | 42 | 28 | 0.01 | 50 | 225 | 100 |  | 
O=C1CCc2cccc(c2)-c2cccc3[nH]c(nc23)-c2n[nH]c3ncc(cc23)-c2cncc(c2)N1 [Compound 5, (Z)-2^1H,3^1H-8-Aza-2(5,3)-pyrazolo[3,4-b]pyridina-3(2,4)-benzo[d]imidazola-1(3,5)-pyridina-4(1,3)-benzenacyclooctaphan-7-one] | 78 | 213 | 0.709 |  |  |  |  | 
O=C1CCc2cccc(c2)-c2cccc3[nH]c(nc23)-c2n[nH]c3cnc(cc23)-c2cncc(c2)N1 [Compound 6, (Z)-2^1H,3^1H-8-Aza-2(5,3)-pyrazolo[3,4-c]pyridina-3(2,4)-benzo[d]imidazola-1(3,5)-pyridina-4(1,3)-benzenacyclooctaphan-7-one] | 29 | 16 | 0.096 |  |  |  |  | 
O=C1CCc2cccc(c2)-c2cccc3[nH]c(nc23)-c2n[nH]c3ccc(nc23)-c2cncc(c2)N1 [Compound 7, (Z)-2^1H,3^1H-8-Aza-2(5,3)-pyrazolo[4,3-b]pyridina-3 (2,4)-benzo[d]imidazola-1(3,5)-pyridina-4(1,3)-benzenacyclooctaphan-7-one] | 560 | 22 | > 10 |  |  |  |  | 
c1cc2cc(c1)-c1cncc3[nH]c(nc13)-c1n[nH]c3ccc(cc13)-c1cncc(c1)CNC2 [Compound 8, (Z)-2^3H,3H-6-Aza-2(7,2)-imidazo[4,5-c]pyridina-3(3,5)-indazola-4(3,5)-pyridina-1(1,3)-benzenacycloheptaphane] | 19 | 206 | 0.003 | 200 | 558 | 1700 |  | 
c1cc2cc(c1)-c1cccc3[nH]c(nc13)-c1n[nH]c3ccc(cc13)-c1cncc(c1)CNC2 [Compound 10, (Z)-2^1H,3^1H-6-Aza-2(5,3),3(2,4)-diindazola-1(3,5)-pyridina-4(1,3)-benzenacycloheptaphane] | 9980 | 10 | 0.018 | 50 | 607 | 600 |  | 
Cn1ncc2c1CNCc1cccc(c1)-c1cccc3[nH]c(nc13)-c1n[nH]c3ccc-2cc13 [Compound 15, (Z)-Methyl-1^1H,2^1H,3^1H-6-aza-2(5,3),3 (2,4)-diindazola-1 (4,5)-pyrazola-4(1,3)-benzenacycloheptaphane] | 87 | 51 | 0.111 |  |  |  |  | 
CN1Cc2cncc(c2)-c2ccc3[nH]nc(c3c2)-c2nc3c(cccc3[nH]2)-c2cccc(c2)C1 [Compound 22, (Z)-6-Methyl-2^1H,3^1H-6-aza-2(5,3),3(2,4)-diindazola-1(3,5)-pyridina-4(1,3)-benzenacycloheptaphane] | 35 | 796 | 0.068 | 50 | 440 | 600 |  | 
CN1Cc2cccc(c2)-c2cccc3[nH]c(nc23)-c2n[nH]c3ccc(cc23)-c2cnn(C)c2C1 [Compound 29] | 77 | 69 | 0.412 |  |  |  |  | 
O=C1COc2cccc(c2)-c2cncc3[nH]c(nc23)-c2n[nH]c3ccc(cc23)-c2cncc(c2)N1 [Compound 38, (Z)-2^3H,3^1H-8-Oxa-5-aza-2(7,2)-imidazo[4,5-c]pyridina-3(3,5)-indazola-4(3,5)-pyridina-1(1,3)-benzenacyclooctaphan-6-one] | 38 | 36 | 0.005 | 100 | 185 | 100 |  | 
CN1CCCn2cc(nn2)-c2cncc3[nH]c(nc23)-c2n[nH]c3ccc(cc23)-c2cncc(c2)C1 [Compound 45, (1^4Z,2^1Z)-6-Methyl-1 ^1H,2^3H,3^1H-6-aza-2(7,2)-imidazo[4,5-c]pyridina-3(3,5)-indazola-4(3,5)-pyridina-1(4,1)-triazolacyclononaphane] | 1540 | 22 | 0.004 |  |  |  |  | 
CN1CCCCN(C)c2nccc3[nH]c(nc23)-c2n[nH]c3ccc(cc23)-c2cncc(c2)C1 [Compound 51, (Z)-5,10-Dimethyl-1H,2^1H-5,10-diaza-1(2,4)-imidazo[4,5-c]pyridina-2(3,5)-indazola-3(3,5)-pyridinacyclodecaphane] | 203 | 93 | 0.002 | 5000 | 231 | 5000 |  | 
c1cc2cc(c1)-c1cccc3[nH]c(nc13)-c1n[nH]c3ccc(cc13)-c1cncc(c1)OCCC2 [Compound 57] | 637 | 25 | > 10 |  |  |  |  | 
O=C1NC2CCC(CC2)NCc2cncc(c2)-c2ccc3[nH]nc(c3c2)-c2nc3c1cccc3[nH]2 [Compound 64, (6^1s,6^4s,Z)-1^1H,2^1H-5,7-diaza-1 (2,4),2(3,5)-dibenzo[d]imidazola-3(3,5)-pyridina-6(1,4)-cyclohexanacyclooctaphan-8-one] | 10000 | 147 | 0.448 |  |  |  | 72 | 
O=C1CCc2cccc(c2)-c2cncc(c2)NC(=O)c2n[nH]c3ccc(cc23)-c2cncc(c2)CN1 [Compound 97, 2^1H-4,10-diaza-2(5,3)-indazola-1,5(3,5)-dipyridina-6(1,3)-benzenacycloundecaphane-3,9-dione] | 406 | 69 | 0.009 |  |  |  |  | 20.8
